Results as given in ChEMBL document CHEMBL1151995, “Evaluation of tea polyphenols as anti-HIV agents” (Bioorg Med Chem Lett, 1996).
Values after ≈ are worked out from the molar mass of the structure shown.

Columns and labels:
H9 = assay: Inhibition of uninfected H9 lymphocytic cell growth; type: functional, cell-based; conditions: Homo sapiens
[1] = tested on: Human immunodeficiency virus 1; assay: Inhibition of HIV-1 replication in H9 (human lymphoma) cells; No suppression.; type: functional, organism-based
[2] = tested on: Human immunodeficiency virus 1; assay: Inhibition of HIV-1 replication in H9 (human lymphoma) cells.; type: functional, organism-based; conditions: Human immunodeficiency virus 1, H9
[3] = Therapeutic index - IC50/EC50.; conditions: read-out: Therapeutic index

Row | SMILES | EC50 [1] | EC50 [2] | IC50 (H9) | selectivity ratio [3]
1 | O=C(Oc1c(O)cc([C@H]2Oc3cc(O)cc(O)c3C[C@H]2OC(=O)c2cc(O)c(O)c(O)c2)cc1O)c1cc(O)c(O)c(O)c1 |  | 6.5 µg/mL (≈ 10.6 µM) | 40 µg/mL (≈ 65.5 µM) | 6.2
2 | O=C(O[C@@H]1Cc2c(O)cc(O)cc2O[C@@H]1c1cc(O)c(O)cc1-c1c([C@H]2Oc3cc(O)cc(O)c3C[C@H]2OC(=O)c2cc(O)c(O)c(O)c2)cc(O)c(O)c1O)c1cc(O)c(O)c(O)c1 | No effect |  | 50 µg/mL (≈ 55.6 µM) | 
3 | Oc1cc(O)c2c(c1)O[C@H](c1cc(O)c(O)c(O)c1)[C@H](O)[C@H]2c1c(O)cc(O)c2c1O[C@H](c1cc(O)c(O)c(O)c1)[C@H](O)C2 |  | 15 µg/mL (≈ 24.6 µM) | 18 µg/mL (≈ 29.5 µM) | 1.2
4 | O=C(/C=C/c1ccc(O)cc1)O[C@@H]1Cc2c(O)cc(O)cc2O[C@@H]1c1cc(O)c(O)c(O)c1 |  | 8 µg/mL (≈ 17.7 µM) | 35 µg/mL (≈ 77.4 µM) | 4.4
5 | O=C(O[C@H](Cc1c(O)cc(O)cc1O)[C@H](c1cc(O)c(O)c(O)c1)c1c(O)cc(O)c2c1O[C@H](c1cc(O)c(O)c(O)c1)[C@H](OC(=O)c1cc(O)c(O)c(O)c1)C2)c1cc(O)c(O)c(O)c1 | No effect |  | 9 µg/mL (≈ 9.82 µM) | 
6 | O=C(O[C@@H]1Cc2c(O)cc(O)c([C@@H]3c4c(O)cc(O)cc4O[C@H](c4cc(O)c(O)c(O)c4)[C@H]3O)c2O[C@@H]1c1cc(O)c(O)c(O)c1)c1cc(O)c(O)c(O)c1 | No effect |  | 9 µg/mL (≈ 11.8 µM) | 
7 | O=C(O[C@@H]1Cc2c(O)cc(O)cc2O[C@@H]1c1cc(O)c(=O)c2c(O)c(O)c(O)cc2c1)c1cc(O)c(O)c(O)c1 |  | 5.5 µg/mL (≈ 9.96 µM) | 25 µg/mL (≈ 45.3 µM) | 4.5
8 | O=C(O[C@@H]1Cc2c(O)cc3c(c2O[C@@H]1c1cc(O)c(O)c(O)c1)C1(O)C(=O)O[C@H]([C@@H](O)CO)C1(O)O3)c1cc(O)c(O)c(O)c1 (stereo partly drawn) |  | 10 µg/mL (≈ 15.8 µM) | 40 µg/mL (≈ 63.2 µM) | 4
9 | O=C1O[C@H]([C@@H](O)CO)C2(O)Oc3cc(O)c4c(c3C12O)O[C@H](c1cc(O)c(O)c(O)c1)[C@H](O)C4 (stereo partly drawn) |  | 4 µg/mL (≈ 8.33 µM) | 38 µg/mL (≈ 79.1 µM) | 9.5
10 | O=C(O[C@@H]1[C@@H](c2c(O)cc(O)c3c2O[C@H](c2cc(O)c(O)c(O)c2)[C@H](OC(=O)c2cc(O)c(O)c(O)c2)C3)c2c(O)cc(O)cc2O[C@@H]1c1cc(O)c(O)c(O)c1)c1cc(O)c(O)c(O)c1 | No effect |  | 40 µg/mL (≈ 43.7 µM) | 
11 | O=C(O[C@@H]1Cc2c(O)cc(O)cc2O[C@@H]1c1cc(O)c(O)c2c(=O)c(O)cc([C@H]3Oc4cc(O)cc(O)c4C[C@H]3O)cc12)c1cc(O)c(O)c(O)c1 | No effect |  | 48 µg/mL (≈ 67 µM) | 
12 | O=C(O[C@H](Cc1c(O)cc(O)cc1O)[C@@H](c1cc(O)c(O)c(O)c1)c1c(O)cc2c(c1O)C[C@@H](OC(=O)c1cc(O)c(O)c(O)c1)[C@@H](c1cc(O)c(O)c(O)c1)O2)c1cc(O)c(O)c(O)c1 |  | 14 µg/mL (≈ 15.3 µM) | 35 µg/mL (≈ 38.2 µM) | 2.5
13 | O=C(O[C@@H]1Cc2c(cc(O)c(Cc3c(O)cc4c(c3O)C[C@@H](OC(=O)c3cc(O)c(O)c(O)c3)[C@@H](c3cc(O)c(O)c(O)c3)O4)c2O)O[C@@H]1c1cc(O)c(O)c(O)c1)c1cc(O)c(O)c(O)c1 |  | 9 µg/mL (≈ 9.69 µM) | 35 µg/mL (≈ 37.7 µM) | 3.9
14 | O=C(O[C@@H]1Cc2c(O)cc(O)cc2OC1c1cc(O)c(O)c(O)c1-c1c(C2Oc3cc(O)cc(O)c3C[C@H]2OC(=O)c2cc(O)c(O)c(O)c2)cc(O)c(O)c1O)c1cc(O)c(O)c(O)c1 (single isomer, unassigned) |  | 8 µg/mL (≈ 8.75 µM) | 40 µg/mL (≈ 43.7 µM) | 5
15 | O=C(O[C@@H]1Cc2c(O)cc(O)cc2O[C@@H]1c1ccc(O)c(O)c1)c1cc(O)c(O)c(O)c1 [EPICATECHIN GALLATE] | No effect |  | > 10 µg/mL | 
16 | Oc1cc(O)c2c(c1)O[C@H](c1cc(O)c(O)c(O)c1)[C@H](O)C2 [EPIGALLOCATECHIN] | No effect |  | 1.8 µg/mL (≈ 5.88 µM) | 
17 | O=C(O[C@@H]1Cc2c(O)cc(O)cc2O[C@@H]1c1cc(O)c(O)c(O)c1)c1cc(O)c(O)c(O)c1 [EPIGALOCATECHIN GALLATE] |  | 7 µg/mL (≈ 15.3 µM) | 8 µg/mL (≈ 17.5 µM) | 1.1
18 | O=C(O[C@@H]1Cc2c(O)cc(O)cc2O[C@@H]1c1cc(O)c(=O)c2c(O)c(O)cc([C@H]3Oc4cc(O)cc(O)c4C[C@H]3OC(=O)c3cc(O)c(O)c(O)c3)c2c1)c1cc(O)c(O)c(O)c1 [THEAFLAVIN DIGALLATE] | No effect |  | 48 µg/mL (≈ 55.3 µM) | 

Second part, led by results:

Row | EC50 [1] | EC50 [2] | SMILES | IC50 (H9) | selectivity ratio [3]
19 | No effect |  | COc1cc(C(=O)O[C@@H]2Cc3c(O)cc(O)cc3O[C@@H]2c2ccc(O)c(O)c2)cc(O)c1O | 50 µg/mL (≈ 110 µM) | 
20 |  | 15 µg/mL (≈ 16.4 µM) | O=C(O[C@@H]1[C@@H](c2c(O)cc3c(c2O)C[C@@H](OC(=O)c2cc(O)c(O)c(O)c2)[C@@H](c2cc(O)c(O)c(O)c2)O3)c2c(O)cc(O)cc2O[C@@H]1c1cc(O)c(O)c(O)c1)c1cc(O)c(O)c(O)c1 | 30 µg/mL (≈ 32.8 µM) | 2
21 | No effect |  | COc1c(O)cc(C(=O)O[C@@H]2Cc3c(O)cc(O)cc3O[C@@H]2c2ccc(O)c(O)c2)cc1O | 50 µg/mL (≈ 110 µM) | 
22 | Not Active |  | O=C(O[C@@H]1Cc2c(O)cc(O)cc2O[C@@H]1c1ccc(O)cc1)c1cc(O)c(O)c(O)c1 | 50 µg/mL (≈ 117 µM) | 
23 |  | 25 µg/mL (≈ 34.1 µM) | O=C(O[C@@H]1Cc2c(O)cc(O)cc2O[C@@H]1c1cc(O)c(O)c2c1C1C([C@H]3Oc4cc(O)cc(O)c4C[C@H]3O)=CC(=O)C1(O)O2)c1cc(O)c(O)c(O)c1 (stereo partly drawn) | 48 µg/mL (≈ 65.5 µM) | 1.9
24 |  | 15 µg/mL (≈ 19.7 µM) | O=C(O[C@@H]1Cc2c(O)cc(O)c([C@H]3c4c(O)cc(O)cc4O[C@H](c4cc(O)c(O)c(O)c4)[C@@H]3O)c2O[C@@H]1c1cc(O)c(O)c(O)c1)c1cc(O)c(O)c(O)c1 | 28 µg/mL (≈ 36.7 µM) | 1.9
25 |  | 6 µg/mL (≈ 9.83 µM) | Oc1cc(O)c2c(c1)O[C@H](c1cc(O)c(O)c(O)c1-c1c([C@H]3Oc4cc(O)cc(O)c4C[C@H]3O)cc(O)c(O)c1O)[C@H](O)C2 | 9.5 µg/mL (≈ 15.6 µM) | 1.6
26 |  | 12 µg/mL (≈ 19.7 µM) | Oc1cc(O)c2c(c1)O[C@H](c1cc(O)c(O)c(O)c1)[C@@H](O)[C@@H]2c1c(O)cc(O)c2c1O[C@H](c1cc(O)c(O)c(O)c1)[C@H](O)C2 | 18 µg/mL (≈ 29.5 µM) | 1.5
27 | No effect |  | O=C(O[C@H](Cc1c(O)cc(O)cc1O)[C@@H](c1cc(O)c(O)c(O)c1)c1c(O)cc(O)c2c1O[C@H](c1cc(O)c(O)c(O)c1)[C@H](OC(=O)c1cc(O)c(O)c(O)c1)C2)c1cc(O)c(O)c(O)c1 | 8 µg/mL (≈ 8.73 µM) | 
28 | No effect |  | O=C(O[C@H]1Cc2c(O)cc3c(c2O[C@H]1c1cc(O)c(O)c(O)c1)[C@H]1c2c(O)cc(O)cc2O[C@@](c2cc(O)c(O)c(O)c2)(O3)[C@@H]1O)c1cc(O)c(O)c(O)c1 | 40 µg/mL (≈ 52.6 µM) | 
29 | No effect |  | O=C(O[C@@H]1Cc2c(O)cc(O)c(Cc3c(O)cc(O)c4c3O[C@H](c3cc(O)c(O)c(O)c3)[C@H](OC(=O)c3cc(O)c(O)c(O)c3)C4)c2O[C@@H]1c1cc(O)c(O)c(O)c1)c1cc(O)c(O)c(O)c1 | 45 µg/mL (≈ 48.5 µM) | 
30 |  | 6.5 µg/mL (≈ 10.6 µM) | O=C(Oc1cc([C@H]2Oc3cc(O)cc(O)c3C[C@H]2OC(=O)c2cc(O)c(O)c(O)c2)cc(O)c1O)c1cc(O)c(O)c(O)c1 | 40 µg/mL (≈ 65.5 µM) | 6.2
31 |  | 25 µg/mL (≈ 26.9 µM) | O=C(O[C@@H]1Cc2c(cc(O)c(Cc3c(O)cc(O)c4c3O[C@H](c3cc(O)c(O)c(O)c3)[C@H](OC(=O)c3cc(O)c(O)c(O)c3)C4)c2O)O[C@@H]1c1cc(O)c(O)c(O)c1)c1cc(O)c(O)c(O)c1 | 40 µg/mL (≈ 43.1 µM) | 1.6
32 |  | 10 µg/mL (≈ 16.4 µM) | Oc1cc(O)c2c(c1)OC(c1cc(O)c(O)c(O)c1-c1c(C3Oc4cc(O)cc(O)c4C[C@H]3O)cc(O)c(O)c1O)[C@H](O)C2 (single isomer, unassigned) | 20 µg/mL (≈ 32.8 µM) | 2
33 | No effect |  | O=C(O[C@@H]1Cc2c(O)cc(O)cc2O[C@@H]1c1cc(O)c(O)c(O)c1-c1c([C@H]2Oc3cc(O)cc(O)c3C[C@H]2O)cc(O)c(O)c1O)c1cc(O)c(O)c(O)c1 [2',2'-BISEPIGALLOCATECHIN MONOGALLATE] | 9.5 µg/mL (≈ 12.5 µM) | 
34 |  | 9.8 µg/mL (≈ 32.2 µM) | O=C1c2c(O)cc(O)cc2O[C@H](c2ccc(O)c(O)c2)[C@H]1O [(+)-TAXIFOLIN] | 9.8 µg/mL (≈ 32.2 µM) | 1
35 |  | 70 µg/mL (≈ 255 µM) | Oc1ccc([C@H]2Oc3cc(O)cc(O)c3C[C@H]2O)cc1 [EPIAFZELECHIN (2R,3R)(-)] | 100 µg/mL (≈ 365 µM) | 1.4
36 |  | 5.5 µg/mL (≈ 9.01 µM) | O=C(Oc1cc(O)cc2c1C[C@@H](OC(=O)c1cc(O)c(O)c(O)c1)[C@@H](c1cc(O)c(O)c(O)c1)O2)c1cc(O)c(O)c(O)c1 [EPIGALLOCATECHIN 3,5-DIGALLATE] | 20 µg/mL (≈ 32.8 µM) | 3.6
37 | No effect |  | O=c1c(O)cc([C@H]2Oc3cc(O)cc(O)c3C[C@H]2O)cc2c([C@H]3Oc4cc(O)cc(O)c4C[C@H]3O)cc(O)c(O)c12 [THEAFLAVIN] | 48 µg/mL (≈ 85 µM) | 
38 |  | 19 µg/mL (≈ 20.8 µM) | O=C(O[C@@H]1Cc2c(O)cc(O)cc2O[C@@H]1c1cc(O)c(O)c(O)c1-c1c([C@H]2Oc3cc(O)cc(O)c3C[C@H]2OC(=O)c2cc(O)c(O)c(O)c2)cc(O)c(O)c1O)c1cc(O)c(O)c(O)c1 [THEASINENSIN A] | 18 µg/mL (≈ 19.7 µM) | 0.95
